The record followed here is US11415579B2, “Assay for measuring a rate of reaction between a target and a ligand candidate” (Imperial College Innovations Ltd., priority 2016, dated 2022).

Experiment [1] in a line: Kinetic thiol consumption assay with model thiol glutathione. It is filed as physicochemical. Set-up: Rate constant with glutathione (k(GSH)): unit not given here. Conditions: for Rate constant with glutathione (k(GSH)): 500 μM ligand, 5 μM thiol, phosphate buffer pH 8; for Rate constant with Glutathione: Protein: Glutathione, cysteine position NA, in h-1. A digest of the protocol: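 Rate constants for acrylamide reaction with 5 μM glutathione come from first-order exponential fits of normalized fluorescence decay (ex 380, em 470 nm). Reactions run in degassed phosphate buffer at pH 8 containing TCEP beads, room temperature.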

Experiment [2] concerns the target T1, human cyclin-dependent kinase 2 (Cdk2) (Homo sapiens, UniProt P24941).
T1 construct: poly-histidine; made in house; host or cells: E. coli
Put plainly: Kinetic thiol consumption assay with wild type Cdk2 (C177). It counts as binding. Set-up: key to Rate enhancement, Cdk2 WT: k(Cdk2) divided by k(model thiol); Rate constant with Cdk2 (k(Cdk2)): unit not given here. As to conditions: for Rate constant with Cdk2 (k(Cdk2)): 500 μM ligand, 5 μM thiol, phosphate buffer pH 8; for Rate enhancement, Cdk2 WT: no additional mutations; for Rate constant with Cdk2 WT: Protein: Cdk2, cysteine position WT, in h^-1; for k(Cdk2)/k(Cdk2_mut) rate enhancement: model thiol Cdk2[C177A, F80C, K278C]; for k(Cdk2)/k(GSH) rate enhancement: model thiol glutathione. A digest of the protocol:
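His-tagged human Cdk2 (single surface cysteine C177), expressed in E. coli, or a model thiol at 5 μM in degassed phosphate buffer pH 8 was pre-treated with immobilized TCEP beads (2% v/v) before acrylamide addition. Fluorescence (ex/em 380/470 nm) was read after 1 h at room temperature, normalized to DMSO/thiol-only control and plotted versus time.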

In the next experiment the target is T2, Cdk2[C177A, F80C, K278C] (Homo sapiens, UniProt P24941, C177A/F80C/K278C).
T2 construct: poly-histidine; made in house; host or cells: E. coli
Put plainly: Kinetic thiol consumption assay with mutant Cdk2 as model thiol. It is filed as binding. Set-up: unit not given here. As to conditions: 500 μM ligand, 5 μM thiol, phosphate buffer pH 8. A digest of the protocol: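 First-order rate constants were derived by exponential-decay fitting of DMSO/thiol-normalized fluorescence (380/470 nm) over time at room temperature. Thiol was 5 μM E. coli-expressed His-tagged Cdk2 mutant C177A/F80C/K278C in degassed pH 8 phosphate buffer containing 2% v/v TCEP beads.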

The target in the next experiment is T3, Cdk2(C177A, F80C) (Homo sapiens, UniProt P24941, C177A/F80C).
T3 construct: poly-histidine; made in house; host or cells: E. coli
As to the kind of experiment: Kinetic thiol consumption assay with Cdk2 mutant F80C, incl. kobs versus concentration (Kd, k2). It is filed as binding. Set-up: key to Rate enhancement, Cdk2 F80C: Cdk2 rate constant divided by model-thiol rate constant. As to conditions: additional mutation C177A; for Rate constant with Cdk2 F80C: Protein: Cdk2, cysteine position F80C, in h^-1. Summed up:
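His-tagged Cdk2(C177A/F80C) from E. coli or model thiol, 5 μM in degassed phosphate buffer pH 8 with TCEP beads, reacted with acrylamide ligands; fluorescence (ex/em 380/470 nm) normalized to DMSO control and fitted to first-order decay for kobs. Kd and k2 obtained from hyperbolic fit of kobs versus ligand concentration.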

A further experiment deals with T4, Cdk2(H71C) (C177A) (Homo sapiens, UniProt P24941, C177A/H71C).
T4 construct: poly-histidine; made in house; host or cells: E. coli
Put plainly: Kinetic thiol consumption assay with Cdk2 mutant H71C. It is filed as binding. Set-up: key to Rate enhancement, Cdk2 H71C: rate constant with Cdk2 ÷ rate constant with model thiol (fold). Conditions: Cdk2 H71C, additional mutation C177A. Summed up:
(§1)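 Thiol consumption was monitored kinetically using 5 μM Cdk2 (C177A plus one introduced cysteine) in degassed phosphate buffer at pH 8 with TCEP beads. Plates were kept 1 h at room temperature before fluorescence reading, and rate constants came from exponential decay fitting.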

The next experiment has as its target T5, Cdk2(S276C) (C177A) (Homo sapiens, UniProt P24941, C177A/S276C).
T5 construct: poly-histidine; made in house; host or cells: E. coli
Put plainly: Kinetic thiol consumption assay with Cdk2 mutant S276C. It is filed as binding. Set-up: key to Rate enhancement, Cdk2 S276C: rate constant with Cdk2 ÷ rate constant with model thiol (fold). Conditions: additional mutation C177A. A digest of the protocol:
as §1

The next experiment has as its target T6, Cdk2(N272C) (C177A) (Homo sapiens, UniProt P24941, C177A/N272C).
T6 construct: poly-histidine; made in house; host or cells: E. coli
As to the kind of experiment: Kinetic thiol consumption assay with Cdk2 mutant N272C. Conditions: for Rate enhancement, Cdk2 N272: Cdk2 N272, additional mutation C177A; for Rate constant with Cdk2 N272C: Protein: Cdk2, cysteine position N272C, additional mutation C177A, in h^-1. Set-up: key to Rate enhancement, Cdk2 N272: rate constant with Cdk2 ÷ rate constant with model thiol (fold). It is filed as binding. Summed up: as §1

The target of the next experiment is T7, Cdk2(T182C) (C177A) (Homo sapiens, UniProt P24941, C177A/T182C).
T7 construct: poly-histidine; made in house; host or cells: E. coli
As to the kind of experiment: Kinetic thiol consumption assay with Cdk2 mutant T182C. It is filed as binding. Also noted: key to Rate enhancement, Cdk2 T182C: rate constant with Cdk2 ÷ rate constant with model thiol (fold). As to conditions: additional mutation C177A; for Rate constant with Cdk2 T182C: Protein: Cdk2, cysteine position T182C, in h^-1. A digest of the protocol:
as §1

The target of the next experiment is T8, Cdk2(R122C) (C177A) (Homo sapiens, UniProt P24941, C177A/R122C).
T8 construct: poly-histidine; made in house; host or cells: E. coli
Put plainly: Kinetic thiol consumption assay with Cdk2 mutant R122C. It is filed as binding. Also noted: key to Rate enhancement, Cdk2 R122C: rate constant with Cdk2 ÷ rate constant with model thiol (fold). Conditions: additional mutation C177A; for Rate constant with Cdk2 R122C: Protein: Cdk2, cysteine position R122C, in h-1. A digest of the protocol: as §1

In another experiment the target is T9, Cdk2(S181C) (C177A) (Homo sapiens, UniProt P24941, C177A/S181C).
T9 construct: poly-histidine; made in house; host or cells: E. coli
Put plainly: Kinetic thiol consumption assay with Cdk2 mutant S181C. It is filed as binding. Conditions: additional mutation C177A; for Rate constant with Cdk2 S181C: Protein: Cdk2, cysteine position S181C, in h^-1. Also noted: key to Rate enhancement, Cdk2 S181C: rate constant with Cdk2 ÷ rate constant with model thiol (fold). Summed up: as §1

Turning to `C=CC(=O)NC(C)c1cccc(N2CCOCC2)c1` (centres unmarked) [EL-1153], in experiment [1], the “Rate constant with glutathione (k(GSH))” value was 0.00284 and the “Rate constant with Glutathione” value is 0.002823. In addition, in experiment [2], the “Rate constant with Cdk2 (k(Cdk2))” value was 0.00103; the “Rate enhancement, Cdk2 WT” value turned out to be 0.3642; the “Rate constant with Cdk2 WT” value is 0.001028; the “k(Cdk2)/k(Cdk2_mut) rate enhancement” value was found to be 0.2449. In experiment [2], the “k(Cdk2)/k(GSH) rate enhancement” value is on record as 0.3619. Also, the “Rate constant with Cdk2[C177A, F80C, K278C] (k(Cdk2_mut))” value (from here on “Rate constant … (k(Cdk2_mut))”) on Cdk2[C177A, F80C, K278C] turned out to be 0.00419. The “Rate enhancement, Cdk2 F80C” value at Cdk2(C177A, F80C) is 0. Also, at Cdk2(H71C) (C177A), the “Rate enhancement, Cdk2 H71C” value came out at 0. In addition, at Cdk2(S276C) (C177A), the “Rate enhancement, Cdk2 S276C” value came to 2.7205E−11. At Cdk2(S276C) (C177A) (Protein: Cdk2, cysteine position S276C, in h^-1), the “Rate constant with Cdk2 S276C” value worked out at 7.68E−14. In addition, at Cdk2(N272C) (C177A), the “Rate enhancement, Cdk2 N272” value was found to be 4.534 and the “Rate constant with Cdk2 N272C” value is listed as 0.0128. At Cdk2(T182C) (C177A), the “Rate enhancement, Cdk2 T182C” value turned out to be 0.474 and the “Rate constant with Cdk2 T182C” value was determined as 0.001338. Besides, at Cdk2(R122C) (C177A), the “Rate enhancement, Cdk2 R122C” value turned out to be 0.9706 and the “Rate constant with Cdk2 R122C” value is reported as 0.00274. Further, on Cdk2(S181C) (C177A), the “Rate enhancement, Cdk2 S181C” value worked out at 0.7428 and the “Rate constant with Cdk2 S181C” value came out at 0.002097.

Regarding `C=CC(=O)N1C(=O)CC(c2ccccc2)N(C(=O)C=C)c2ccccc21` (centres unmarked) [CA-165-1], in experiment [1], the “Rate constant with glutathione (k(GSH))” value was found to be 0.4444 and the “Rate constant with Glutathione” value is on record as 5.198. Also, in experiment [2], the “Rate constant with Cdk2 (k(Cdk2))” value was 0.3945; the “Rate enhancement, Cdk2 WT” value came out at 1.092; the “Rate constant with Cdk2 WT” value amounted to 5.676; the “k(Cdk2)/k(Cdk2_mut) rate enhancement” value turned out to be 0.3473. For the same compound, the “k(Cdk2)/k(GSH) rate enhancement” value in experiment [2] amounted to 0.8877. Besides, the “Rate constant … (k(Cdk2_mut))” value at Cdk2[C177A, F80C, K278C] is reported as 1.136. Also, at Cdk2(C177A, F80C), the “Rate enhancement, Cdk2 F80C” value is given as 0.661 and the “Rate constant with Cdk2 F80C” value stood at 3.436. Besides, the “Rate enhancement, Cdk2 H71C” value at Cdk2(H71C) (C177A) is 0. The “Rate enhancement, Cdk2 S276C” value at Cdk2(S276C) (C177A) is recorded as 0. Besides, the “Rate enhancement, Cdk2 N272” value at Cdk2(N272C) (C177A) turned out to be 0. Moreover, the “Rate enhancement, Cdk2 T182C” value at Cdk2(T182C) (C177A) is on record as 0. Further, the “Rate enhancement, Cdk2 R122C” value on Cdk2(R122C) (C177A) stood at 0. Moreover, the “Rate enhancement, Cdk2 S181C” value at Cdk2(S181C) (C177A) is 0.

`C=CC(=O)N1CCC2(CCCN(Cc3ccccc3)C2)C1` (centres unmarked) [CA-141]: in [1], the “Rate constant with glutathione (k(GSH))” value turned out to be 0.01384 and the “Rate constant with Glutathione” value came to 0.01802. In addition, in [2], the “Rate constant with Cdk2 (k(Cdk2))” value was 0.00693; the “Rate enhancement, Cdk2 WT” value is 0.3847; the “Rate constant with Cdk2 WT” value worked out at 0.006933; the “k(Cdk2)/k(Cdk2_mut) rate enhancement” value amounted to 2.693. Besides, the “k(Cdk2)/k(GSH) rate enhancement” value in experiment [2] came to 0.5009. Further, the “Rate constant … (k(Cdk2_mut))” value at Cdk2[C177A, F80C, K278C] is given as 0.00257. On Cdk2(C177A, F80C), the “Rate enhancement, Cdk2 F80C” value came out at 0.09517 and the “Rate constant with Cdk2 F80C” value turned out to be 0.001715. At Cdk2(H71C) (C177A), the “Rate enhancement, Cdk2 H71C” value is recorded as 0. Further, on Cdk2(S276C) (C177A), the “Rate enhancement, Cdk2 S276C” value was determined as 0. Besides, at Cdk2(N272C) (C177A), the “Rate enhancement, Cdk2 N272” value is given as 0.2507 and the “Rate constant with Cdk2 N272C” value is 0.004517. At Cdk2(T182C) (C177A), the “Rate enhancement, Cdk2 T182C” value came out at 0.5125 and the “Rate constant with Cdk2 T182C” value was 0.009235. Also, on Cdk2(R122C) (C177A), the “Rate enhancement, Cdk2 R122C” value worked out at 0.2386 and the “Rate constant with Cdk2 R122C” value is 0.0043. For the same compound, at Cdk2(S181C) (C177A), the “Rate enhancement, Cdk2 S181C” value came out at 0.1935 and the “Rate constant with Cdk2 S181C” value was determined as 0.003487.
